Patent publication US8043422B2, “Combinations of phenylpyrroles and pyrion compounds” (Janssen Pharmaceutica, NV, priority 2008, dated 2011)
Read-outs that look alike come from different tables or passages of the source.

Key:
Assay type in all cases: cell-based
[1] = test system: Ulocladium atrum IMI214699a; test: Poison Plate Assay, fungi
Experimental: (§1) • Test models: • Fungi: to each well of a 24-well microtiter plate, 1000 μl of a rich (Potato Dextrose Agar, PDA: 4 g potato infusion, 20 g bacto dextrose and 15 g bacto agar in 1 liter deionised water) or poor (Glucose Agar, GA: 10 g glucose, 1.5 g K2HPO4, 2 g KH2PO4, 1 g (NH4)2SO4, 0.5 g MgSO4 and 12.5 g agar in 1 liter deionised water) medium containing the appropriate combination of the test compounds in one of the concentrations of a dose series is added. The nutrient medium is inoculated with the test fungi by adding a spore/mycelium suspension (10 μl) or a small piece of agar from the margin of an actively growing colony and incubated under dark at 27° C. with 70% relative humidity. The growth of the fungi is evaluated after two weeks. • Glucose agar was used in some experiments instead of PDA (Potato Dextrose Agar), as an alternative, poorer medium for the fungi, in order to increase the chances of detecting activity in compounds like fludioxonil, whose mode of action could be partly circumvented by fungi on a richer medium (Copping, L. and Hewitt, G. (1998) “Chemistry and mode of action of crop protection agents.” The Royal Society of Chemistry, Cambridge. 145 pp.). • Bacteria: to each well of a 24-well microtiter plate, 1000 μL Tryptose Agar (TA, 20 g bacto tryptose agar, 5 g sodium chloride, 1 g bacto dextrose and 15 g agar in 1 liter deionised water), containing the test compounds in one of the concentrations of a dose series is added. The nutrient medium is inoculated by adding 10 μl of an actively growing liquid culture of the test bacteria in tryptose broth (without agar), and incubated under dark at 27° C. with 70% relative humidity. Growth is evaluated after five days. • Concentrations: • MIC values for single compounds were collected from previous screening experiments. These MIC values were used as a guide in determining of the most suitable test dose ranges. • Synergy experiment with bispyrithione: • 25.00-18.75-14.06-10.55-7.91-5.93-4.45-3.34-2.50-1.88-1.41-1.06 ppm • Synergy experiment with sodium pyrithione: • 10.00-7.50-5.63-4.22-3.16-2.37-1.78-1.33-1.00-0.75-0.56-0.42 ppm Test combinations:
(§2) (2000) “Measuring synergy” cosmetics & Toiletries 115(11): 59-62; and Lada, A., A. N. Petrocci, H. A. Green, and J. J. Merianos (1977) “Antimicrobial composition” U.S. Pat. No. 4,061,750, 3 pp.):
(§3) [formula] wherein: • QA is the concentration of compound A in ppm, acting alone, which produced an end point (e.g. MIC), • Qa is the concentration of compound A in ppm, in the mixture, which produced an end point (e.g. MIC), • QB is the concentration of compound B in ppm, acting alone, which produced an end point (e.g. MIC), • Qb is the concentration of compound B in ppm, in the mixture, which produced an end point (e.g. MIC). […]

[2] = test system: Staphylococcus aureus (g+) LMG 8064; test: Poison Plate Assay, bacteria; conditions: for MIC-values (minimum inhibitory concentration) in ppm: fludioxonil (I-a) with sodium pyrithione (II-h); for MIC: LMG8064, 120 h, read-out: MIC-values (minimum inhibitory concentration) in ppm
Experimental: as §1, §2, §3

[3] = test system: Coriolus versicolor CTB863A; test: Poison Plate Assay, fungi; conditions: Trametes versicolor, 336 h, read-out: MIC-values (minimum inhibitory concentration) in ppm
Experimental: as §1, §2, §3

[4] = ppm total active ingredient, Tryptose Agar, 27° C., growth evaluated after five days

Row | Compound | MIC-values (minimum inhibitory concentration) in ppm ([1]; Ulocladium atrum, fludioxonil (I-a) with sodium pyrithione (II-h), ppm total active ingredient, 27° C., growth evaluated after two weeks) | MIC-values (minimum inhibitory concentration) in ppm [2, 4] | MIC ([3]; Coriolus versicolor, fludioxonil (I-a) with pyrion disulfide (II-g), ppm total active ingredient, 27° C., growth evaluated after two weeks) | MIC ([2]; fludioxonil (I-a) with pyrion disulfide (II-g), ppm total active ingredient, Tryptose Agar, 27° C., growth evaluated after five days) | MIC ([1]; Alternaria atra, IMI214699A, 336 h, read-out: MIC-values (minimum inhibitory concentration) in ppm) | MIC [3] | MIC [2]
1 | [Na+].[O-][n+]1ccccc1[S-] [sodium pyrithione (II-h), sodium pyrithione] | 2.37 ppm | 4.22 ppm |  |  |  |  | 
2 | [O-][n+]1ccccc1SSc1cccc[n+]1[O-] [pyrion disulfide (II-g), pyrion disulfide] |  |  | 18.8 µg/mL | 4.45 µg/mL |  |  | 
3 | N#Cc1c[nH]cc1-c1cccc2c1OC(F)(F)O2 [fludioxonil (I-a), 4-(2,2-difluoro-1,3-benzodioxol-4-yl)-1H-pyrrole-3-carbonitrile] |  | 40.00 ppm |  |  | 100 µg/mL | 40 µg/mL | 40 µg/mL
